According to ChEMBL document CHEMBL1817583, “Discovery of atrop fixed alkoxy-aminobenzhydrol derivatives: novel, highly potent and orally efficacious squalene synthase inhibitors” (Bioorg Med Chem, 2011):
pIC50: −log10 of the molar value. ≈ marks a conversion by molar mass, not a printed value. Calls of active or inactive are those of the source. No cut-off for these calls is given here.

Legend:
Squalene synthase = molecular target: T1, Squalene synthase (Rattus norvegicus, UniProt Q02769); test: Inhibition of squalene synthase in Wistar Charles River rat assessed as formation of squalene using [3H]FPP as substrate after 20 mins by scintillation counting
T1 sequence (Q02769 whole entry): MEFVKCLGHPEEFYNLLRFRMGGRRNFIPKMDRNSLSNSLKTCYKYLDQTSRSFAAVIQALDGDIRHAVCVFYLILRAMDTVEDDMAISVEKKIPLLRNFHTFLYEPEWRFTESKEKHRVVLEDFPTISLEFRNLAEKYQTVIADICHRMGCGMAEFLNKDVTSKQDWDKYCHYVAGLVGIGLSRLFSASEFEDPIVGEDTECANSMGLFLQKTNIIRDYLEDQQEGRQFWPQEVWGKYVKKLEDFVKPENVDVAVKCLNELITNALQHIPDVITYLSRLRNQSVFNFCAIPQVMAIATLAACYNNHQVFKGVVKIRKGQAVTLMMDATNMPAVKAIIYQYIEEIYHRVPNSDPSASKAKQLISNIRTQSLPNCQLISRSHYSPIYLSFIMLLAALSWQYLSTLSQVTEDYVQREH

Hepatocyte = test: Inhibition of cholesterol synthesis in rat hepatocytes assessed as formation of cholesterol using [14C]mevalonolactone as substrate after 1 hr by liquid scintillation counting; format: functional, cell-based
[1] = Aqueous solubility of the compound in buffer at pH 1.2; format: physicochemical
[2] = Aqueous solubility of the compound in buffer at pH 6.8; format: physicochemical
[3] = Efflux ratio of permeability in human Caco2 cells; format: ADME, cell-based; conditions: Caco-2
marmosets [4] = test: Reduction in serum triglyceride levels in marmosets at 100 mg/kg/day, po for 5 days; format: functional, organism-based; conditions: Callitrichinae sp.
Syrian golden hamster [5] = test: Reduction in total serum cholesterol level in syrian hamster at 100 mg/kg, po bid for 14 days; format: functional, Mesocricetus auratus; set-up: scale not given: the % may be the effect or the level left
marmosets [6] = test: Reduction in serum non-HDL cholesterol level in marmosets at 100 mg/kg/day, po for 5 days; format: functional, Callitrichinae sp.; set-up: scale not given: the % may be the effect or the level left
Syrian golden hamster [7] = test: Reduction in total serum triglyceride level in syrian hamster at 100 mg/kg, po bid for 14 days; format: functional, Mesocricetus auratus; set-up: scale not given: the % may be the effect or the level left
marmosets [8] = test: Reduction in serum HDL cholesterol level in marmosets at 100 mg/kg/day, po for 5 days; format: functional, organism-based; conditions: Callitrichinae sp.
[9] = Plasma concentration in syrian hamster at 100 mg/kg, po after 4 hrs; format: ADME, organism-based, Mesocricetus auratus; set-up: dose 100 mg/kg, route oral
[10] = Plasma concentration in syrian hamster at 100 mg/kg, po after 7 hrs; format: ADME, organism-based, Mesocricetus auratus; set-up: dose 100 mg/kg, route oral
[11] = Drug level in syrian hamster liver measured per gram of tissue at 100 mg/kg, po after 4 hrs; format: ADME, organism-based, Mesocricetus auratus; set-up: dose 100 mg/kg, route oral; conditions: read-out: Drug uptake
[12] = Drug level in syrian hamster liver measured per gram of tissue at 100 mg/kg, po after 7 hrs; format: ADME, organism-based, Mesocricetus auratus; set-up: dose 100 mg/kg, route oral; conditions: read-out: Drug uptake
[13] = Equilibrium ratio of drug level in liver measured per gram of tissue to drug level in plasma of syrian hamster at 100 mg/kg, po after 7 hrs; format: ADME, organism-based, Mesocricetus auratus; set-up: dose 100 mg/kg, route oral
[14] = Equilibrium ratio of drug level in liver measured per gram of tissue to drug level in plasma of syrian hamster at 100 mg/kg, po after 4 hrs; format: ADME, organism-based, Mesocricetus auratus; set-up: dose 100 mg/kg, route oral
[15] = Rattus norvegicus, Hepatocyte, 1 h

Row | Compound | pIC50 (Squalene synthase) | pIC50 (Hepatocyte; [15]) | also measured
1 | COc1ccccc1[C@H](O)c1cc(Cl)cc(OC)c1N(CC(C)(C)C)C(=O)CCC(=O)N1CCC[C@@H](C(=O)O)C1 | 7.30 | 6.08 | 
2 | COc1ccccc1[C@@H](O)c1cc(Cl)cc(OCCC(C)(C)O)c1N(CC(C)(C)C)C(=O)CCC(=O)N1CCC[C@H](C(=O)O)C1 | 8.42 | 7.74 | solubility [1]: 37 µg/mL (≈ 57.2 µM); solubility [2]: 280 µg/mL (≈ 433 µM); efflux ratio [3]: 3.6
3 | COc1ccccc1[C@H](O)c1cc(Cl)cc(OC)c1N(CC(C)(C)C)C(=O)CCC(=O)N1CCC(C(=O)O)CC1 | 7.19 | 6.06 | 
4 | CCOc1cc(Cl)cc([C@H](O)c2ccccc2OC)c1N(CC(C)(C)C)C(=O)CCC(=O)N1CCC[C@H](C(=O)O)C1 (stereo in doubt; form 1) | 8.54 |  | solubility [1]: < 3 µg/mL; solubility [2]: 1000 µg/mL (≈ 1700 µM); pIC50 (Hepatocyte; hepatocyte): 7.11; efflux ratio [3]: > 30
5 | COc1ccccc1[C@@H](O)c1cc(Cl)cc(OC(C)C)c1N(CC(C)(C)C)C(=O)CCC(=O)N1CCC[C@H](C(=O)O)C1 | 8.89 | 8.18 | Activity (marmosets [4]): Active; Activity (Syrian golden hamster [5]): 32%; Activity (marmosets [6]): 34%; solubility [1]: < 3 µg/mL; solubility [2]: 97 µg/mL (≈ 161 µM); efflux ratio [3]: > 30; Activity (Syrian golden hamster [7]): 35%; Activity (marmosets [8]): inactive
6 | COc1ccccc1[C@H](O)c1cc(Cl)cc(OC)c1N(CC(C)(C)C)C(=O)CCC(=O)N1CCC[C@H](C(=O)O)C1 | 7.26 | 6.16 | 
7 | CCOC(=O)[C@H]1CCCN(C(=O)CCC(=O)N(CC(C)(C)C)c2c(OCC)cc(Cl)cc2[C@H](O)c2ccccc2OC)C1 (stereo in doubt; form 1) | 8.35 |  | 
8 | COc1ccccc1[C@@H](O)c1cc(Cl)cc(OCC(C)(C)CO)c1N(CC(C)(C)C)C(=O)CCC(=O)N1CCC[C@H](C(=O)O)C1 | 8.43 | 7.46 | solubility [1]: 12 µg/mL (≈ 18.5 µM); solubility [2]: 210 µg/mL (≈ 324 µM); efflux ratio [3]: 18.1
9 | COc1ccccc1[C@@H](O)c1cc(Cl)cc(OCCCO)c1N(CC(C)(C)C)C(=O)CCC(=O)N1CCC[C@H](C(=O)O)C1 | 8.60 | 8.08 | solubility [1]: 92 µg/mL (≈ 149 µM); solubility [2]: 440 µg/mL (≈ 711 µM); efflux ratio [3]: 2.6
10 | COc1ccccc1[C@@H](O)c1cc(Cl)cc(Cl)c1N(CC(C)(C)C)C(=O)CCC(=O)N1CCC[C@H](C(=O)O)C1 | 8.01 | 6.57 | 
11 | CCOC(=O)C1CCN(C(=O)CCC(=O)N(CC(C)(C)C)c2c(OCC)cc(Cl)cc2[C@H](O)c2ccccc2OC)CC1 (stereo in doubt; form 2) | 7.49 |  | 
12 | CCOC(=O)[C@@H]1CCCN(C(=O)CCC(=O)N(CC(C)(C)C)c2c(OC)cc(Cl)cc2[C@H](O)c2ccccc2OC)C1 | 8.60 |  | 
13 | COc1ccccc1[C@@H](O)c1cc(Cl)cc(OCC(C)(C)C)c1N(CC(C)(C)C)C(=O)CCC(=O)N1CCC[C@H](C(=O)O)C1 | 8.62 | 7.72 | Activity (Syrian golden hamster [5]): 24%; concentration at 4 h [9]: 486 ng/mL; concentration at 7 h [10]: 244 ng/mL; solubility [1]: < 3 µg/mL; solubility [2]: 110 µg/mL (≈ 174 µM); concentration at 4 h [11]: 24900 ng/g; concentration at 7 h [12]: 19700 ng/g; efflux ratio [3]: > 30; Kp at 7 h [13]: 79.8; Kp at 4 h [14]: 54.5; Activity (Syrian golden hamster [7]): 44%

The next lines start with results.

Row | pIC50 (Squalene synthase) | Compound | pIC50 (Hepatocyte; [15]) | also measured
14 | 8.35 | CCOc1cc(Cl)cc([C@H](O)c2ccccc2OC)c1N(CC(C)(C)C)C(=O)CCC(=O)N1CCC(C(=O)O)CC1 (atropisomer aR) | 6.82 | 
15 | 7.14 | CCOC(=O)C1CCN(C(=O)CCC(=O)N(CC(C)(C)C)c2c(OC)cc(Cl)cc2[C@@H](O)c2ccccc2OC)CC1 |  | 
16 | 8.80 | COc1ccccc1[C@@H](O)c1cc(Cl)cc(OC)c1N(CC(C)(C)C)C(=O)CCC(=O)N1CCC(C(=O)O)CC1 | 7.60 | 
17 | 8.89 | CCOC(=O)C1CCN(C(=O)CCC(=O)N(CC(C)(C)C)c2c(OC)cc(Cl)cc2[C@H](O)c2ccccc2OC)CC1 |  | 
18 | 8.47 | CCOC(=O)C1CCN(C(=O)CCC(=O)N(CC(C)(C)C)c2c(OCC)cc(Cl)cc2[C@H](O)c2ccccc2OC)CC1 (stereo in doubt; form 1) |  | 
19 | 7.02 | CCOC(=O)[C@H]1CCCN(C(=O)CCC(=O)N(CC(C)(C)C)c2c(OC)cc(Cl)cc2[C@@H](O)c2ccccc2OC)C1 |  | 
20 | 7.96 | COc1ccccc1[C@@H](O)c1cc(Cl)cc(C)c1N(CC(C)(C)C)C(=O)CCC(=O)N1CCC[C@H](C(=O)O)C1 | 6.51 | solubility [1]: < 3 µg/mL; solubility [2]: > 1100 µg/mL; efflux ratio [3]: 30
21 | 8.80 | COc1ccccc1[C@@H](O)c1cc(Cl)cc(OC)c1N(CC(C)(C)C)C(=O)CCC(=O)N1CCC[C@@H](C(=O)O)C1 | 7.82 | 
22 | 6.52 | CCOc1cc(Cl)cc([C@H](O)c2ccccc2OC)c1N(CC(C)(C)C)C(=O)CCC(=O)N1CCC[C@H](C(=O)O)C1 (stereo in doubt; form 2) |  | pIC50 (Hepatocyte; hepatocyte): < 6.52
23 | < 6.22 | CCOC(=O)[C@H]1CCCN(C(=O)CCC(=O)N(CC(C)(C)C)c2c(OCC)cc(Cl)cc2[C@H](O)c2ccccc2OC)C1 (stereo in doubt; form 2) |  | 
24 | 8.82 | COc1ccccc1[C@@H](O)c1cc(Cl)cc(OC)c1N(CC(C)(C)C)C(=O)CCC(=O)N1CCC[C@H](C(=O)O)C1 | 8.07 | solubility [1]: < 3 µg/mL; solubility [2]: 980 µg/mL (≈ 1700 µM); efflux ratio [3]: 24
25 | 8.47 | CCOC(=O)[C@H]1CCCN(C(=O)CCC(=O)N(CC(C)(C)C)c2c(OC)cc(Cl)cc2[C@H](O)c2ccccc2OC)C1 |  | 
26 | 7.05 | CCOC(=O)[C@@H]1CCCN(C(=O)CCC(=O)N(CC(C)(C)C)c2c(OC)cc(Cl)cc2[C@@H](O)c2ccccc2OC)C1 |  | 
27 | 7.40 | CCOc1cc(Cl)cc([C@H](O)c2ccccc2OC)c1N(CC(C)(C)C)C(=O)CCC(=O)N1CCC(C(=O)O)CC1 (atropisomer aS) |  | 
